Assay results published in patent US8324166B2, “Neuroprotection using NAP-like and SAL-like peptide mimetics” (Ramot at Tel-Aviv University, Ltd., priority 2007, dated 2012).
Where “and” joins values, the source holds several entries; their conditions need not be identical. Equal entries are not always repeated.

Key:
[1] = test system: rTg(tauP301L)4510 mouse (Tau-Tg); assay: Morris water maze in Tau transgenic mice; type: in vivo; details: Tau-Tg female mice, intranasal NAT 2 μg/5 μl/mouse/day; p=0.039
Method: The mouse model, used in the current study, was previously described (Ramsden et al., (2005) J Neurosci, 25, 10637-10647). The rTg(tauP301L)4510 mouse (designated as Tau-Tg below) expresses the human 4-repeat Tau with the P301L mutation (4RON) associated with frontotemporal dementia and Parkinsonism linked to chromosome 17.
The experiment included three groups: Tau-Tg female mice, 10-month-old, treated by intranasal administration of NAT 2 μg/5 μl/mouse/day (n=5) or vehicle (SW/mouse/day) (n=6), and as control, non-Tg female littermates treated by vehicle (SW/mouse/day) (n=7).
NAT was dissolved in a vehicle solution, in which each milliliter include 7.5 mg of NaCl, 1.7 mg of citric acid monohydrate, 3 mg of disodium phosphate dehydrate, and 0.2 mg of benzalkonium chloride solution (50%). 5 μl of NAT or vehicle solution (DD) were administered intranasally.
Treatment started at 9 months of age and continued daily for a period of 5 weeks. At each test NAT was applied 1 h before the test begun.
Each mouse was placed in a pool of water that is colored opaque with powdered non-fat milk, where it must swim to a hidden escape platform. […]
Experimental procedure: Mice were treated with NAT or vehicle and then habituated for 1 hour in the experiment room. […] The time required for reaching the platform in each trial and the path lengths were measured. […]

[2] = test system: cerebral cortical astrocytes intoxicated with ZnCl2; assay: MTS assay: survival of astrocytes following intoxication with ZnCl2; type: cell-based, mice
Method: Cell cultures were prepared as previously described (McCarthy KD, de Vellis J., J. Cell Biol., 85:890-902 (1980); Gozes I et al., J. Pharmacol. Exp. Ther., 257:959-66 (1991)). Newborn mice (Harlan Biotech Israel Ltd., Rehovot, Israel) were sacrificed by decapitation and the brain was removed. The cortex was dissected and meninges were removed. The tissue was minced with scissors and placed in Hank's balanced salts solution X1 (HBSS, Biological Industries, Beit Haemek, Israel), 15 mM HEPES Buffer pH 7.3 (Biological Industries, Beit Haemek, Israel) and 0.25% trypsin (Biological Industries, Beit Haemek, Israel) in an incubator at 37° C. 10% CO2 for 20 minutes. The cells were then placed in 8 ml of solution D1 containing 10% heat inactivated fetal calf serum (Biological Industries, Beit Haemek, Israel), 0.1% gentamycin sulphate solution (Biological Industries, Beit Haemek, Israel) and 0.1% penicillin-streptomycin-nystatin solution (Biological Industries, Beit Haemek, Israel) in Dulbecco's modified Eagle's medium (DMEM, Sigma, Rehovot, Israel). The cells were allowed to settle, and were then transferred to a new tube containing 2.5 ml of D1 and triturated using a Pasteur pipette. The process was repeated twice more. Once all the cells were suspended, cell density was determined using a hemocytometer (Neubauer improved, Germany) and 1×10^6 cells/15 ml D1 were inoculated into each 75 cm^2 flask (Corning, Corning, N.Y., USA). Cells were incubated at 37° C. 10% CO2. The medium was changed after 24 hours and cells were grown until confluent (one week).
The flasks containing the cerebral cortical astrocytes were shaken to dislodge residual neurons and oligodendrocytes that may be present. Flasks were then washed with 10 ml cold HBSSx1, HEPES15 mM. 5 ml versene-trypsin solution (BioLab, Jerusalem, Israel) was added to each flask and the flasks were incubated at room temperature for 5 minutes to remove astrocytes. The flasks were then shaken to dislodge the cells. The versene-trypsin solution was neutralized with 5 ml D1. The cell suspension was collected and centrifuged at 100 g for 10 minutes. The supernatant was removed and the cells resuspended in D1. The cells were plated in 96 well plates (Corning, Corning, N.Y., USA) (each flask to 2 plates) and incubated until confluent at 37° C. 10% CO2.
The survival of astrocytes following intoxication with ZnCl2 was tested using the MTS assay. One week after sub-culturing the astrocytes into 96-well plates, the astrocyte growth medium was aspirated and fresh medium containing 200μM ZnCl2 and ascending concentrations of NATLSHIHQ (SEQ ID NO:4) or STPTAIPQ (SEQ ID NO:6)(concentration range: 10^−16-10^−7M) was added to the cells. The cells were incubated for 4 hours in 10% CO2 at 37°C., followed by an MTS assay using Celltiter 96 Aqueous non-radioactive cell proliferation assay (Promega, Madison, WI, USA) which was performed according to the manufacturer's instructions and read in an ELISA plate reader at 490nm.

## NATLSIHQ (synthetic NAP-like peptide)
[1]
  improvement in learning: latency to find the hidden platform, first day vs fifth day, second daily trial: Significant improvement
[2]; MTS assay, 4 hours, tested 10^−16-10^−7M, significance vs negative control in cell
  effective concentrations on astrocyte survival: Astrocytes (200 μM ZnCl2): 10^−12 M and 10^−8 M and 10^−7 (p < 0.0005) M and 10^−10 (p < 0.05) M
[2]; astrocytes, ZnCl2
  activity in neuroprotection assay: active
[2]; survival of astrocytes
  efficacy compared between peptides: greater than that of STPTAIPQ
